In patent publication US9200318B2, “Reduced inhibition of one-step RT-PCR” (Bio Rad Laboratories, Inc., priority 2007, dated 2015):
Read-outs that look alike come from different tables or passages of the source.

System: reverse transcriptase
Method: Thaw all components, except the reverse transcriptase, at room temperature. Mix gently, but thoroughly, and then centrifuge at 4° C. to collect contents to the bottom of the tube. Chill on ice before using. Centrifuge again briefly at 4° C. if needed.
To a mixture of Taq DNA polymerase, dNTP (dATP, dCTP, dGTP and dTTP), magnesium chloride, stabilizers and SdC, is added a forward primer, a reverse primer, nuclease-free water and a reverse transcriptase. Assemble the reaction cocktail with all required components except sample template (total RNA) and dispense equal aliquots into each reaction tube. Add target sample (RNA template) to each reaction as the final step 5-10 μl volumes.
The reaction mixture is then incubated in a real-time thermal detection system as follows: • cDNA synthesis: 10 min at 50° C. • reverse transcriptase inactivation: 5 min at 95° C. • PCR cycling and detection (30 to 45 cycles): 10 sec at 95° C., followed by 30 sec at 55° C. to 60° C.

Row | Compound | inhibition of reverse transcriptase in one-step RT-PCR (4 ng/μl suramin vs absence) | specificity of one-step RT-PCR (4 ng/μl suramin vs absence) | inhibition of reverse transcriptase in one-step RT-PCR (0.1, 0.5, 2 and 10 nM SdC) | specificity of one-step RT-PCR (0.1, 0.5, 2 and 10 nM SdC)
1 | Cc1ccc(C(=O)Nc2ccc(S(=O)(=O)O)c3cc(S(=O)(=O)O)cc(S(=O)(=O)O)c23)cc1NC(=O)c1cccc(NC(=O)Nc2cccc(C(=O)Nc3cc(C(=O)Nc4ccc(S(=O)(=O)O)c5cc(S(=O)(=O)O)cc(S(=O)(=O)O)c45)ccc3C)c2)c1 [suramin] | reduces the inhibition of reverse transcriptase | significantly improves the specificity of one-step RT-PCR |  | 
2 | phosphorothioate oligodeoxycytosine [SdC] |  |  | reduces the inhibition of reverse transcriptase | significantly improves the specificity of one-step RT-PCR
